From US9062041B2 (Bayer Intellectual Property GmbH, priority 2011, dated 2015)

What was measured:
Format in all cases: cell-based
[1] = biological target: EP2 subtype of the human PGE2 receptor (Homo sapiens, UniProt P43116); assay: cAMP antagonism test on the human EP2 receptor (HTRF cAMP detection); settings: hEP2 receptor, read-out: Antagonism hEP2 IC50
Procedure, shortened: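 Read-out is a competitive HTRF for cAMP: lysate cAMP displaces cAMP-d2 from Eu cryptate-labelled antibody, and antagonism raises the 665/620 nm ratio. Compound (0.8 nM–16.5 μM) added to EP2 cells 20 min at RT before 60 min PGE2 challenge (3× stock 1.5 nM) with IBMX, followed by 20 min lysis.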

[2] = biological target: EP4 subtype of the human PGE2 receptor (Homo sapiens, UniProt P35408); assay: cAMP antagonism test on the human EP4 receptor (HTRF cAMP detection); settings: selectivity towards hEP4, IC50 measured by cAMP antagonism test
Chain of EP4 subtype of the human PGE2 receptor (P35408 whole entry): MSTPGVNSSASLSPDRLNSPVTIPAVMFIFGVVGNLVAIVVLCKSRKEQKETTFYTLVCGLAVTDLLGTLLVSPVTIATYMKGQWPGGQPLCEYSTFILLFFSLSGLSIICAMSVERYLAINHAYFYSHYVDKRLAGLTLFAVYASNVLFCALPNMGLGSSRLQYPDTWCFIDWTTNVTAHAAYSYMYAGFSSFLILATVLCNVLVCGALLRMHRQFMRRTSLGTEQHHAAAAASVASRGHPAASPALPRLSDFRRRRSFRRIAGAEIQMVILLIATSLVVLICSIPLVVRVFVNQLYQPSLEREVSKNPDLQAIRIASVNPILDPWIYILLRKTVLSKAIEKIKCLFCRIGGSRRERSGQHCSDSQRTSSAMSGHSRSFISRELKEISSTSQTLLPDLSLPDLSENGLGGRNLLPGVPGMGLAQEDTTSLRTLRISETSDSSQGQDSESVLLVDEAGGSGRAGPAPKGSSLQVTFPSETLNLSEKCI
Procedure, shortened: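 Competitive HTRF cAMP read-out (cAMP-d2 vs Eu-cryptate anti-cAMP antibody, 665/620 nm ratio) on lysed human EP4 cells. Compound (0.8 nM–16.5 μM) applied 20 min at RT before 60 min PGE2 challenge (3× solution 0.3 nM, IBMX present); 20 min lysis precedes reading.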

human PGD receptor = biological target: T1, human PGD receptor (Homo sapiens, UniProt Q13258); assay: cAMP antagonism test on the human prostaglandin D receptor (HTRF cAMP detection); settings: selectivity towards hDP, IC50 measured by cAMP antagonism test
T1 sequence (Q13258 1-359): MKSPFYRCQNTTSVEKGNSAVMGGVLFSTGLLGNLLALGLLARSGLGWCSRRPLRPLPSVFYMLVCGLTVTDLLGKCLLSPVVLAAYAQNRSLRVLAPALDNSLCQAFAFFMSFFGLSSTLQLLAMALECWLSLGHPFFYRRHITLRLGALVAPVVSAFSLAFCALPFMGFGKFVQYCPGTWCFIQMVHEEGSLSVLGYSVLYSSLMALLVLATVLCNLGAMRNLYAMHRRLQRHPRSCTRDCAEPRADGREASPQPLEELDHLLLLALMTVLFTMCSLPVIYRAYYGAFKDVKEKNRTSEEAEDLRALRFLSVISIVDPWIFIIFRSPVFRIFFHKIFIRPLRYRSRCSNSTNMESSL
Procedure, shortened: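 HTRF competition read-out (665/620 nm ratio ×10000), where higher FRET means less cAMP, i.e. antagonism. Compounds (0.8 nM–16.5 μM) were preincubated 20 min at RT with cells and cAMP-d2, PGD2 (3× solution, 6 nM) in IBMX-containing PBS added for 30 min at RT, then cells lysed 20 min.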

Chain of EP2 subtype of the human PGE2 receptor (P43116 whole entry): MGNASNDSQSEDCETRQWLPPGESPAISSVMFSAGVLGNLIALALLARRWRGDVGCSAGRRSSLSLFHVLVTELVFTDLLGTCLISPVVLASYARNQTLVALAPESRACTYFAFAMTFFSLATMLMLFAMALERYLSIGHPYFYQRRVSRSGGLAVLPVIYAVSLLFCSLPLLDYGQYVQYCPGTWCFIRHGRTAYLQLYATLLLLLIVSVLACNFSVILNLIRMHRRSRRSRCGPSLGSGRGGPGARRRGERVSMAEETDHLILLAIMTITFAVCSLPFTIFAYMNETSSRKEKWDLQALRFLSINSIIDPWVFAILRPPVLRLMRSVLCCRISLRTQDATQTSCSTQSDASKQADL

Structure (SMILES) | IC50 [1] [nM] | Selectivity hEP2/hEP4 [2] | Selectivity hEP2/hDP (human PGD receptor)
COCCNC(=O)c1ccc2nn(CC3CCN(C(=O)c4ccc(OC)cc4)CC3)cc2c1C [Example 21, 2-{[1-(4-methoxy-benzoyl)piperidin-4-yl]methyl}-N-(2-methoxyethyl)-4-methyl-2H-indazol-5-carboxamide] | 35.8 | xxx (xxx > 100) | xxx (xxx > 100)
COCCNC(=O)c1ccc2nn(CC3CCN(C(=O)c4ccc(F)cc4)CC3)cc2c1C [Example 22, 2-{[1-(4-fluoro-benzoyl)piperidin-4-yl]methyl}-N-(2-methoxyethyl)-4-methyl-2H-indazol-5-carboxamide] | 30.3 | xxx (xxx > 100) | xxx (xxx > 100)
COCCNC(=O)c1ccc2nn(CC3CCN(C(=O)c4ccc(C(F)(F)F)cc4)CC3)cc2c1C [Example 23, N-(2-methoxyethyl)-4-methyl-2-({1-[4-(trifluoromethyl)-benzoyl]piperidin-4-yl}methyl)-2H-indazol-5-carboxamide] | 16.1 | xxx (xxx > 100) | xxx (xxx > 100)
COCCNC(=O)c1ccc2nn(CC3CCN(C(=O)c4ccccc4OC)CC3)cc2c1C [Example 24, 2-{[1-(2-methoxy-benzoyl)piperidin-4-yl]methyl}-N-(2-methoxyethyl)-4-methyl-2H-indazol-5-carboxamide] | 60.1 | xxx (xxx > 100) | xxx (xxx > 100)
COCCNC(=O)c1ccc2nn(CC3CCN(C(=O)c4ccc(S(=O)(=O)C(F)(F)F)cc4)CC3)cc2c1C [Example 25, N-(2-methoxyethyl)-4-methyl-2-[(1-{4-[(trifluoromethyl)-sulphonyl]benzoyl}-piperidin-4-yl)-methyl]-2H-indazol-5-carboxamide] | 25.2 | xxx (xxx > 100) | xxx (xxx > 100)
COCCNC(=O)c1ccc2nn(CC3CCN(C(=O)c4cccc(C(F)(F)F)c4)CC3)cc2c1C [Example 26, N-(2-methoxyethyl)-4-methyl-2-({1-[3-(trifluoromethyl)-benzoyl]piperidin-4-yl}methyl)-2H-indazol-5-carboxamide] | 24.2 | xxx (xxx > 100) | xxx (xxx > 100)

Second part, the compound after the results:

IC50 [1] [nM] | Selectivity hEP2/hEP4 [2] | Selectivity hEP2/hDP (human PGD receptor) | Structure (SMILES)
19.3 | xxx (xxx > 100) | xxx (xxx > 100) | COCCNC(=O)c1ccc2nn(CC3CCN(C(=O)c4cccc(C)c4)CC3)cc2c1C [Example 27, N-(2-methoxyethyl)-4-methyl-2-{[1-(3-methylbenzoyl)-piperidin-4-yl]-methyl}-2H-indazol-5-carboxamide]
33.9 | xxx (xxx > 100) | xxx (xxx > 100) | COCCNC(=O)c1ccc2nn(CC3CCN(C(=O)c4cccc(Cl)c4)CC3)cc2c1C [Example 28, 2-{[1-(3-chloro-benzoyl)piperidin-4-yl]methyl}-N-(2-methoxyethyl)-4-methyl-2H-indazol-5-carboxamide]
9.31 | xxx (xxx > 100) | xxx (xxx > 100) | COCCNC(=O)c1ccc2nn(CC3CCN(C(=O)c4cc5ccccc5n4C)CC3)cc2c1C [Example 29, N-(2-methoxyethyl)-4-methyl-2-({1-[(1-methyl-1H-indol-2-yl)carbonyl]-piperidin-4-yl}methyl)-2H-indazol-5-carboxamide]
64.3 | xxx (xxx > 100) | xxx (xxx > 100) | COCCNC(=O)c1ccc2nn(CC3CCN(C(=O)c4ccc(Oc5ccc(C(N)=O)cc5)cc4)CC3)cc2c1C [Example 30, 2-({1-[4-(4-carbamoylphenoxy)-benzoyl]piperidin-4-yl}methyl)-N-(2-methoxyethyl)-4-methyl-2H-indazol-5-carboxamide]
